Where a SMILES comes first, the peptide text is derived from it. Bridges are numbered along the chain shown (N, C = ends). [ ]: non-standard residue; d: D form. hPhe(3-Cl-4-CF3) = N[C@@H](CCc1ccc(C(F)(F)F)c(Cl)c1)C(=O)O; NPrPhe(4-CF3) = CCCN[C@@H](Cc1ccc(C(F)(F)F)cc1)C(=O)O; NMeGly(cPent) = CN[C@H](C(=O)O)C1CCCC1; Hyp = O=C(O)[C@@H]1C[C@@H](O)CN1; NMeD = CN[C@@H](CC(=O)O)C(=O)O; NMeL = CN[C@@H](CC(C)C)C(=O)O; Ac4c = NC1(C(=O)O)CCC1; Sar = CNCC(=O)O
Assays:
[1] = target: GDP-bound NRAS wild-type protein (Homo sapiens, UniProt P01111); experiment: Binding to NRAS by surface plasmon resonance (SPR), Single Cycle Kinetics; conditions: KD ratio NRAS/KRAS
GDP-bound NRAS wild-type protein, sequence (P01111 whole entry): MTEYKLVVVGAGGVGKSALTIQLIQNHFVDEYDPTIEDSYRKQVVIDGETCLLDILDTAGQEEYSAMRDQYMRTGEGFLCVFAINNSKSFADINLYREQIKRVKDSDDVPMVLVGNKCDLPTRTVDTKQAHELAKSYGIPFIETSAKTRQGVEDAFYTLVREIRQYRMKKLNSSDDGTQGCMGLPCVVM

[2] = target: GDP-bound HRAS wild-type protein (Homo sapiens, UniProt P01112); experiment: Binding to HRAS by surface plasmon resonance (SPR), Single Cycle Kinetics; conditions: KD ratio HRAS/KRAS
GDP-bound HRAS wild-type protein, sequence (P01112 whole entry): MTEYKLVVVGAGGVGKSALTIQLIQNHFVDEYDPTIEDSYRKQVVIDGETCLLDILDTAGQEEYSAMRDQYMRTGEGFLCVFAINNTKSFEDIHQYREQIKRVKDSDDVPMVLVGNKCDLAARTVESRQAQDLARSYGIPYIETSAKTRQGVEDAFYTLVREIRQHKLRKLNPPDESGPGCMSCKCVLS

| Compound | NRAS/KRAS (ratio of KD value with respect to GDP-bound NRAS wild-type protein to KD value with respect to KRAS) ([1]; SPR) | HRAS/KRAS (ratio of KD value with respect to GDP-bound HRAS wild-type protein to KD value with respect to KRAS) ([2]; SPR) | NRAS/KRAS (ratio of KD value with respect to GDP-bound NRAS wild-type protein to KD value with respect to KRAS) ([1]; class symbols) | HRAS/KRAS (ratio of KD value with respect to GDP-bound HRAS wild-type protein to KD value with respect to KRAS) ([2]; class symbols) |
| --- | --- | --- | --- | --- |
| CCCN1C(=O)CN(C)C(=O)CNC(=O)[C@H]([C@@H](C)CC)NC(=O)[C@H](CC(C)C)N(C)C(=O)C[C@@H](C(=O)N(C)C)N(C)C(=O)[C@H](C2CCCC2)N(C)C(=O)C2(CCC2)NC(=O)[C@@H]2C[C@@H](OCC)CN2C(=O)[C@H](CCc2ccc(C(F)(F)F)c(Cl)c2)NC(=O)CN(C)C(=O)[C@@H]1Cc1ccc(C(F)(F)F)cc1 [PP0422] ([NMeL]IG[Sar][NPrPhe(4-CF3)][Sar][hPhe(3-Cl-4-CF3)][Hyp](Et)[Ac4c][NMeGly(cPent)][NMeD]-NMe2; lactam N-11) | B (a compound having 3 or more and less than 10 is denoted as B) | B (a compound having 3 or more and less than 10 is denoted as B) |  |  |
| CCC[C@H]1C(=O)N[C@@H]([C@@H](C)CC)C(=O)N(C)CC(=O)N(C)[C@H]2C/C=C\CCN(C2=O)[C@@H](Cc2ccc(C(F)(F)F)cc2)C(=O)N(C)CC(=O)N[C@@H](CCc2ccc3c(C)c(C)n(C)c3c2)C(=O)N2C[C@H](OCC)C[C@H]2C(=O)NC2(CC(C)(C)C2)C(=O)N(C)[C@@H](C2CCCC2)C(=O)N(C)[C@H](C(=O)N(C)C)CC(=O)N1C [PP2893] |  |  | A (a compound having 10 or more and less than 20 is denoted as A) | A (a compound having 10 or more and less than 20 is denoted as A) |
| CCO[C@@H]1C[C@H]2C(=O)NC3(CCC3)C(=O)N(C)[C@@H](C3CCCC3)C(=O)N(C)[C@H](C(=O)N3CCCCC3)CC(=O)N(C)[C@H]3CCC/C=C/c4ccc(cc4)C[C@@H](C(=O)N(C)CC(=O)N[C@@H](CCc4ccc(Cl)c(Cl)c4)C(=O)N2C1)N1CC/C=C\C[C@@H](C1=O)N(C)C(=O)CN(C1CC1)C(=O)[C@H]([C@@H](C)CC)NC3=O [PP2958] |  |  | AA (a compound having 20 or more is denoted as AA) | A (a compound having 10 or more and less than 20 is denoted as A) |
| CC[C@H](C)[C@@H]1NC(=O)[C@H](CC2CC2)N(C)C(=O)C[C@@H](C(=O)N(C)C)N(C)C(=O)[C@H](C2CCCC2)N(C)C(=O)C2(CC(C)(C)C2)NC(=O)[C@@H]2C[C@@H](F)CN2C(=O)[C@H](CCc2cc(F)c(C(F)(F)F)c(F)c2)NC(=O)CN(C)C(=O)[C@H](Cc2ccc(C)cc2)N2CC/C=C\C[C@@H](C2=O)N(C)C(=O)CN(C)C1=O [PP2804] |  |  | A (a compound having 10 or more and less than 20 is denoted as A) | A (a compound having 10 or more and less than 20 is denoted as A) |
| CCO[C@@H]1C[C@H]2C(=O)NC3(CCC3)C(=O)N(C)[C@@H](C3CCCC3)C(=O)N(C)[C@H](C(=O)N3CCOCC3)CC(=O)N(C)[C@@H](COC)C(=O)N[C@@H]([C@@H](C)CC)C(=O)N(C)CC(=O)N(C)[C@H]3CCCCN(C3=O)[C@@H](Cc3ccc(C(F)(F)F)cc3)C(=O)N(C)CC(=O)N[C@@H](CCc3cc(F)c(C(F)(F)F)c(F)c3)C(=O)N2C1 [PP0719] | C (A compound having a KD ratio of 0.1 or more and less than 3 is denoted as C) | B (a compound having 3 or more and less than 10 is denoted as B) |  |  |
| CCC[C@H]1C(=O)N[C@@H]([C@@H](C)CC)C(=O)N(C)CC(=O)N(C)[C@H]2C/C=C\CCN(C2=O)[C@@H](Cc2ccc(C(F)(F)F)cc2)C(=O)N(C)CC(=O)N[C@@H](CCc2ccc(C(F)(F)F)c(Cl)c2)C(=O)N2CCCCC[C@H]2C(=O)NC2(CC(C)(C)C2)C(=O)N(C)[C@@H](C(CC)CC)C(=O)N(C)[C@H](C(=O)N(C)C)CC(=O)N1C [PP2964] |  |  | AA (a compound having 20 or more is denoted as AA) | A (a compound having 10 or more and less than 20 is denoted as A) |
| CCC(CC)[C@H]1C(=O)N(C)[C@H](C(=O)N(C)C)CC(=O)N(C)[C@H]2CCC/C=C/c3ccc(cc3)C[C@@H](C(=O)N(C)CC(=O)N[C@@H](CCc3cc(F)c(C(F)(F)F)c(F)c3)C(=O)N3C[C@H](OC(C)C)C[C@H]3C(=O)NC3(CC(C)(C)C3)C(=O)N1C)N1CC/C=C\C[C@@H](C1=O)N(C)C(=O)CN(C)C(=O)[C@H]([C@@H](C)CC)NC2=O [PP2594] |  |  | A (a compound having 10 or more and less than 20 is denoted as A) | A (a compound having 10 or more and less than 20 is denoted as A) |

Source: patent US20250230193A1, “CYCLIC COMPOUND HAVING SELECTIVE KRAS INHIBITORY EFFECT ON HRAS AND NRAS” (CHUGAI SEIYAKU KABUSHIKI KAISHA, priority 2022, published 2025)
